Assay results from patent publication US20210228562A1, “IRAK DEGRADERS AND USES THEREOF” (Kymera Therapeutics, Inc., priority 2019, published 2021).

Experiments:
Assay type in all cases: cell-based
OCI-LY10 cells = experiment: CTG Cell Viability Assay - OCI-LY10; conditions: Homo sapiens, 96 h, CellTiter-Glo, 4 days incubation
Description: Compound-mediated viability effect on OCI-LY10 or SUDHL-2 was quantitatively determined using the CellTiter-Glo® Luminescent Cell Viability Assay kit from Promega (Catalog number G7570) following manufacturer's recommended procedures. Briefly, OCI-LY10 or SUDHL-2 cells were seeded into 384 well plates (Grenier Bio-One, Catalog number 781080) with a density of 10,000 cells per well. Compounds were then added to the assay plate with final top concentration of 10 μM and 1:3 dilution series with total of 9 doses. The final DMSO concentration was normalized to 0.2%. The assay plates were incubated at 37° C. for 4 days under 5% CO2. Then the assay plate was equilibrated at room temperature for 10 minutes. To determine cell viability, 30 μL CellTiter Glo reagent was added to each well and the assay plate was centrifuged at 1000 rpm for 30 second, incubated at room temperature for 10 min, and analyzed by detecting the luminescence using a multimode plate reader (EnVision 2105, PerkinElmer). The data was then analyzed by software Prism 7.0 from GraphPad and the dose response curves were fit using a three-parameter logistic equation to calculate IC50.

[1] = target: T1, Ikaros (protein product of gene IKZF1) (Homo sapiens, UniProt Q13422+Q96SW2); experiment: Quantification of Ikaros degradation in OCI-LY10 cells (quantitative immunoblotting); conditions: 6 h treatment
T1 construct: endogenous in cells; host or cells: OCI-LY10
Description: (§1) Degradation of Ikaros (protein product of gene IKZF1) and Aiolos (protein product of gene IKZF3) were determined by quantitative immunoblotting as follows. OCI-LY10 cells, 2×10^6 cells/well, were treated with listed concentrations of IRAK4 degraders or control compounds in 6 well plates for 6 h. Cells were collected, washed with cold PBS, lysed in RIPA buffer (Boston BioProducts BP-115D) with protease/phosphatase inhibitor cocktail (Roche 05892791001/Roche 04906837001) and centrifuged at 13000 RPM for 20 min to precipitate insoluble material. The supernatant fraction was diluted in SDS-PAGE loading buffer (Beyotime Bio P0015) and 20 μL of each sample was resolved on 4-12% Bis-Tris SDS-PAGE gels (Novex, WG1402BOX). Resolved samples were transferred to nitrocellulose membranes by wet electro-transfer method at 250 mV for 1.5 h. The membrane was blocked with LICOR blocking buffer (LI-COR, 927-50000) for 1 hour, washed three times with TBST (CST #99975) for 5 minutes each and incubated with primary antibody prepared in block buffer with 0.1% Tween-20 (Solarbio, P8220) at 4° C. overnight. Ikaros antibody was rabbit monoclonal D6N9Y (CST #14859), at 1:1000 dilution. Aiolos antibody was rabbit monoclonal D1C1E (CST #15103), at 1:1000 dilution. Signal was normalized to mouse anti-beta-Actin monoclonal 8H10D10 (CST #3700) used at 1:10,000 dilution. After incubation in primary antibodies, membranes were washed three times with TBST, 5 minutes each, incubated with fluorescently labeled secondary antibodies anti-rabbit IgG (Licor, 926-32211) at 1:5000 dilution; anti-mouse IgG (LI-COR, 926-68070) at 1:5000 dilution, for 1 hour at RT. After incubation in secondary, membranes were washed three times with TBST, 5 minutes each and read on LICOR Odyssey imager. Data was reported as signal for Ikaros or Aiolos relative to signal for actin, and normalized to DMSO-treated control.

[2] = target: T2, Aiolos (protein product of gene IKZF3) (Homo sapiens, UniProt Q96SW2+Q9UKT9); experiment: Quantification of Aiolos degradation in OCI-LY10 cells (quantitative immunoblotting); conditions: 6 h treatment
T2 construct: endogenous in cells; host or cells: OCI-LY10
Description: as §1

IRAK4 = target: T3, IRAK4 (Homo sapiens, UniProt Q9NWZ3); experiment: IRAK4 MSD Degradation in OCI-LY10; conditions: OCI-LY10 cells, 24 hrs incubation; read-out: IRAK4 degradation in OCI-LY10 at 24 hrs: DC50
T3 construct: endogenous in cells; host or cells: OCI-LY10
T3 sequence (Q9NWZ3 1-460): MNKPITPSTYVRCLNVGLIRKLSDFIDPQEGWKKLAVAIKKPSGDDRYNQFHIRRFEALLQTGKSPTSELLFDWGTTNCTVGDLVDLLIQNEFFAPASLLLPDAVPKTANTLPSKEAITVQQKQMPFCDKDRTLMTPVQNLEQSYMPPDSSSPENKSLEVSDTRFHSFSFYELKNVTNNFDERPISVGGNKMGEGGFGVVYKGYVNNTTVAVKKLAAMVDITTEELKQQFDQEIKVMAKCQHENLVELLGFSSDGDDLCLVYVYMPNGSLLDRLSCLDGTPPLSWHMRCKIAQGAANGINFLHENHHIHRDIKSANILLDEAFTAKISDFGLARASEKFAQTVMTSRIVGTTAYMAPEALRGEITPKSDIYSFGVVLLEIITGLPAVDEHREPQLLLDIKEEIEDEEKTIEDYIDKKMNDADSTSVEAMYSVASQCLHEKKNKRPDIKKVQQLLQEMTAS
Description: Degradation of IRAK4 in OCI-LY10 was quantitatively measured using Meso Scale Discovery technology. OCI-LY10 cells were seeded in 96-well plates (Corning 3799) with a density of 300,000 cells per well in 100 μL fresh media. Compounds were then added to the assay plates with a final top concentration of 1 to 10 μM in a 1:3 dilution series with total of 8 doses. The assay plates were then incubated for 4 to 24 hours at 37° C. under 5% CO2. The assay plates were then centrifuged for 5 minutes and the cell pellets were treated with 100 μL/well RIPA lysis buffer (Boston BioProducts BP-115D) with proteinase inhibitors. To prepare MSD assay plates (Meso Scale Discovery Catalog number L15XA-3), the plates were coated with 2 μg/mL capture antibody (mouse Anti-IRAK4 antibody [2H9], ab119942) in PBS, at 40 μL/well. The plates were then incubated overnight at 4° C., washed 3 times with 150 μL/well TBST buffer (Cell Signaling Technology, Catalog number 9997S) and blocked with 150 μL/well blocking buffer (Meso Scale Discovery Catalog number R93BA-4). Cell lysates were then added to MSD assay plates and the plates were incubated at room temperature for 1 hour. The plates were then washed 3 times with 150 μL/well TBST buffer and 25 μL/well primary detection antibody (rabbit Anti-IRAK4 antibody [Y279], from Abcam. Catalog number ab32511, 1 μg/mL). The assay plates were then incubated at room temperature for 1 hour, washed 3 times with 150 μL/well TBST buffer and 25 μL/well secondary detection antibody, SULFO-TAG anti-rabbit antibody were added (anti rabbit antibody from Meso Scale Discovery, Catalog number R32AB-1, 1 μg/mL). The assay plates were then incubated at room temperature for 1 hour, washed 3 times with 150 μL/well TBST buffer, and 150 μL/well MSD reading buffer (Meso Scale Discovery catalog number R92TC-2) was added. The plates were then analyzed by a MSD reader (Meso Scale Discovery, Model Quick Plex SQ 120). The data was then analyzed by software Prism 7.0 from GraphPad and the dose-depended IRAK4 degradation were fit using a three-parameter logistic equation to calculate DC50.

T1 sequence (Q13422 whole entry): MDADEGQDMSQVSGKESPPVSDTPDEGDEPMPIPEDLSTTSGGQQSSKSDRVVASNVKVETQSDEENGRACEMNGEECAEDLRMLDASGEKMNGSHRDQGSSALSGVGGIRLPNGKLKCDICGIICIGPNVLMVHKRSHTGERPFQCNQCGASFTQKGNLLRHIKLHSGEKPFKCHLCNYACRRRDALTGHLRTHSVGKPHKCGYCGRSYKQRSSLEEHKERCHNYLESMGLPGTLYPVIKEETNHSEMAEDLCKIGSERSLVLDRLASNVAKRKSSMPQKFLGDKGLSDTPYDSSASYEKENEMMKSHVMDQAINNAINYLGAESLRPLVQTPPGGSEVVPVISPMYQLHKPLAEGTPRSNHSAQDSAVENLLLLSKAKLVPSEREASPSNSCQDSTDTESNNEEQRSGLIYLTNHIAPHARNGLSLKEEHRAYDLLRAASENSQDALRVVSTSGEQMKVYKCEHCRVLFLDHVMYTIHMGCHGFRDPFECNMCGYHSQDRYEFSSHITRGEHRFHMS
T1 sequence (Q96SW2 whole entry): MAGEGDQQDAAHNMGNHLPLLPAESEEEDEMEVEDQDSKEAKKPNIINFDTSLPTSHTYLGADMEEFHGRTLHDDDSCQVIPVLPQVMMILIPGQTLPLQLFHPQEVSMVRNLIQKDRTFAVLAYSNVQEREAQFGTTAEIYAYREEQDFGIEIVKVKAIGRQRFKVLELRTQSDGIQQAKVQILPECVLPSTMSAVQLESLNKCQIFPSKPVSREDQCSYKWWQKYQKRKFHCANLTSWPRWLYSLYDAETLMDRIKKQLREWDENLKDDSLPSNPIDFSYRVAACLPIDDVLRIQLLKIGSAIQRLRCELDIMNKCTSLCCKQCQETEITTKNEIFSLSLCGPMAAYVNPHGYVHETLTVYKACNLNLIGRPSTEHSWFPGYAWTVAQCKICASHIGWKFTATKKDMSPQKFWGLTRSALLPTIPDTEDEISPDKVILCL
T1 sequence (Q16531 whole entry partner): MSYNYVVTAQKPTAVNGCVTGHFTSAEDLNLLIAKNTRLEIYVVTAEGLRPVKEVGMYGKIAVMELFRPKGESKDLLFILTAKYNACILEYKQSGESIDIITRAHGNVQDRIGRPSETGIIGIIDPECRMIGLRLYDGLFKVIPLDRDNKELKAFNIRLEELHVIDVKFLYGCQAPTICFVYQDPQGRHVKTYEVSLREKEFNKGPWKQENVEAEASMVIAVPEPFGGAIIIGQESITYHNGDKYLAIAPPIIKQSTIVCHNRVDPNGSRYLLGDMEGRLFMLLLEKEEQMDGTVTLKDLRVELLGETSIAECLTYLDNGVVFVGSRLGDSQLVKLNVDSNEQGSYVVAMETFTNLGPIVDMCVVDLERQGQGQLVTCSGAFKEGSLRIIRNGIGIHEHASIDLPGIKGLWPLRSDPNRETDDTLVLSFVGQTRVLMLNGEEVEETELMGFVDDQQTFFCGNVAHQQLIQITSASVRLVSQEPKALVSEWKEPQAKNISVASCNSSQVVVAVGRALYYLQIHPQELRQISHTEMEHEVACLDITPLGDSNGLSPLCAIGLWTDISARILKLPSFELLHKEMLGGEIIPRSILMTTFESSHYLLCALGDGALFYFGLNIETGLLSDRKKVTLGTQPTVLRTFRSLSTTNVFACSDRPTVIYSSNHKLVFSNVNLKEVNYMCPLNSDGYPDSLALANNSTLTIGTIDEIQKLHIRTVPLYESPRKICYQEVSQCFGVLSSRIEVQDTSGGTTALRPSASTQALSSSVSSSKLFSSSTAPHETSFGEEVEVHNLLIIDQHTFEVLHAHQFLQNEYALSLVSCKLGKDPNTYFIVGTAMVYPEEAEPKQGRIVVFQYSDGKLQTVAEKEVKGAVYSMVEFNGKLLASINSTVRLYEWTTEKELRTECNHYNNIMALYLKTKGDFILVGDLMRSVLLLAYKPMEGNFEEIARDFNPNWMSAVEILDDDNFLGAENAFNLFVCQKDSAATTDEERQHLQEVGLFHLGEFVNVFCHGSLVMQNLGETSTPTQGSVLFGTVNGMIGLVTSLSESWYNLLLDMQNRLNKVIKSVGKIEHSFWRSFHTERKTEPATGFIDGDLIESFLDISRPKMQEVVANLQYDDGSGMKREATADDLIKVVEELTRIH
T2 sequence (Q9UKT9 whole entry): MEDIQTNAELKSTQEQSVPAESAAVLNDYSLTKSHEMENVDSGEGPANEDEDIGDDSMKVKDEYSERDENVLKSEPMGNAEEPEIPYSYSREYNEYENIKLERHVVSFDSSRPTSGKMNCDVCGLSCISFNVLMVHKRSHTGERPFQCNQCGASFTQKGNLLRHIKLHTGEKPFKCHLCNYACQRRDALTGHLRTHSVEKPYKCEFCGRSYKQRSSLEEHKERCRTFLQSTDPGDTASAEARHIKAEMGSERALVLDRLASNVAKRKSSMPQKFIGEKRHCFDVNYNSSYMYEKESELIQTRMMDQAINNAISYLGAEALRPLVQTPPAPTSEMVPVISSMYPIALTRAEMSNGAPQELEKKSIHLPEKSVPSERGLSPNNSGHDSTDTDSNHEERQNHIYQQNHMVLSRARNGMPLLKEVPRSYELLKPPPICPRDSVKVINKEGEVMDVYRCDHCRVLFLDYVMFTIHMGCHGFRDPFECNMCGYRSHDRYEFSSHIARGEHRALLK
T2 sequence (Q96SW2 whole entry): as the sequence (Q96SW2 whole entry) above
T2 sequence (Q16531 whole entry partner): as the sequence (Q16531 whole entry partner) above

Row | SMILES | IC50 (OCI-LY10 cells) | DC50 [1] | DC50 [2] | DC50 (IRAK4)
1 | COc1cc2nc([C@H]3CC[C@H](CN4CC5(CC(CCNc6cccc7c6C(=O)N(C6CCC(=O)NC6=O)C7=O)C5)C4)CC3)sc2cc1-n1ccc2ccccc2c1=O (stereo partly drawn) [I-42] | < 0.05 µM | < 0.05 µM | < 0.05 µM | 0.05 to 0.1 µM
2 | C[C@H](CNc1cccc2c1C(=O)N(C1CCC(=O)NC1=O)C2=O)C1CC2(C1)CN(C[C@H]1CC[C@H](c3nc4cc(C(C)(C)O)c(NC(=O)c5cccc(C(F)(F)F)n5)cc4s3)CC1)C2 (stereo partly drawn) [I-31] | < 0.05 µM | < 0.05 µM | < 0.05 µM | < 0.05 µM
3 | CC(C)(O)c1cc2nc([C@H]3CC[C@H](N4CC5(CC(CCNc6cccc7c6C(=O)N(C6CCC(=O)NC6=O)C7=O)C5)C4)CC3)sc2cc1NC(=O)c1cccc(C(F)(F)F)n1 (single isomer, unassigned) [I-63] | < 0.05 µM | < 0.05 µM | < 0.05 µM | < 0.05 µM
4 | CC(C)(O)c1cc2nc([C@H]3CC[C@H](CN4CC5(CC(CCNc6cccc7c6C(=O)N(C6CCC(=O)NC6=O)C7=O)C5)C4)CC3)sc2cc1NC(=O)c1ccc(C(F)(F)F)nn1 (stereo partly drawn) [I-55] | < 0.05 µM | < 0.05 µM | < 0.05 µM | > 1 µM
5 | COc1cc2nc([C@H]3CC[C@H](CN4CC5(CCC(CNc6cccc7c6C(=O)N(C6CCC(=O)NC6=O)C7=O)CC5)C4)CC3)sc2cc1NC(=O)c1cccc(C(F)(F)F)n1 (stereo partly drawn) [I-20] | < 0.05 µM | 0.1 to 0.5 µM | 0.1 to 0.5 µM | 0.05 to 0.1 µM
6 | COc1cc2nc([C@H]3CC[C@H](CN4CCC5(CC4)CC(Nc4cccc6c4C(=O)N(C4CCC(=O)NC4=O)C6=O)C5)CC3)sc2cc1NC(=O)c1cnn2cccnc12 (stereo partly drawn) [I-34] | 0.05 to 0.1 µM | < 0.05 µM | < 0.05 µM | < 0.05 µM
7 | CC(C)(O)c1cc2nc([C@H]3CC[C@H](CN4CC5(CC(CCNc6cccc7c6C(=O)N(C6CCC(=O)NC6=O)C7=O)C5)C4)CC3)sc2cc1-n1ccc2ccccc2c1=O (stereo partly drawn) [I-40] | < 0.05 µM | < 0.05 µM | < 0.05 µM | 0.1 to 0.5 µM
8 | CC1(C)OC2(C)c3ccccc3CCN2c2cc3sc([C@H]4CC[C@H](CN5CC6(CC(CCNc7cccc8c7C(=O)N(C7CCC(=O)NC7=O)C8=O)C6)C5)CC4)nc3cc21 (stereo partly drawn) [I-49] | 0.05 to 0.1 µM | < 0.05 µM | < 0.05 µM | > 1 µM
9 | CC(C)(O)c1cc2nc([C@H]3CC[C@H](CN4CC5(CC(CCNc6cccc7c6C(=O)N(C6CCC(=O)NC6=O)C7=O)C5)C4)CC3)sc2cc1NC(=O)c1cccc(C(C)(F)F)c1 (stereo partly drawn) [I-50] | < 0.05 µM | < 0.05 µM | < 0.05 µM | 0.5 to 1 µM
10 | CC(C)(O)c1cc2nc([C@H]3CC[C@H](CN4CCC5(CC4)CC4(CC(CCNc6cccc7c6C(=O)N(C6CCC(=O)NC6=O)C7=O)C4)C5)CC3)sc2cc1NC(=O)c1cccc(C(F)(F)F)n1 (stereo partly drawn) [I-59] | 0.1 to 0.5 µM | 0.1 to 0.5 µM | 0.1 to 0.5 µM | 0.1 to 0.5 µM

Results, then the compound that gave them:

Row | IC50 (OCI-LY10 cells) | DC50 [1] | DC50 [2] | DC50 (IRAK4) | SMILES
11 | 0.05 to 0.1 µM | < 0.05 µM | < 0.05 µM | < 0.05 µM | CC(C)(O)c1cc2nc([C@H]3CC[C@H](CN4CC5(CCC(CNc6cccc7c6C(=O)N(C6CCC(=O)NC6=O)C7=O)CC5)C4)CC3)sc2cc1NC(=O)c1cccc(C(F)(F)F)n1 (stereo partly drawn) [I-30]
12 | 0.05 to 0.1 µM | < 0.05 µM | < 0.05 µM | > 1 µM | CN(C[C@H]1CC[C@H](c2nc3cc(C(C)(C)O)c(NC(=O)c4cccc(C(F)(F)F)n4)cc3s2)CC1)[C@H]1CC[C@@H](CNc2cccc3c2C(=O)N(C2CCC(=O)NC2=O)C3=O)CC1 (stereo partly drawn) [I-48]
13 | < 0.05 µM | < 0.05 µM | < 0.05 µM | < 0.05 µM | CN(C[C@H]1CC[C@H](c2nc3cc(C(C)(C)O)c(NC(=O)c4cccc(C(F)(F)F)n4)cc3s2)CC1)[C@H]1CC[C@H](CNc2cccc3c2C(=O)N(C2CCC(=O)NC2=O)C3=O)CC1 (stereo partly drawn) [I-41]
14 | 0.05 to 0.1 µM | < 0.05 µM | < 0.05 µM | < 0.05 µM | CC(C)(O)c1cc2nc([C@H]3CC[C@H](CN4CC5(CC(CNc6cccc7c6C(=O)N(C6CCC(=O)NC6=O)C7=O)C5)C4)CC3)sc2cc1NC(=O)c1cccc(C(F)(F)F)n1 (stereo partly drawn) [I-26]
15 | 0.1 to 0.5 µM | 0.05 to 0.1 µM | < 0.05 µM | 0.1 to 0.5 µM | COc1cc2nc([C@H]3CC[C@H](CN(C)[C@H]4CC[C@]5(CC4)C[C@@H](CNc4cccc6c4C(=O)N(C4CCC(=O)NC4=O)C6=O)C5)CC3)sc2cc1NC(=O)c1cccc(C(F)(F)F)n1 (stereo partly drawn) [I-21]
16 | < 0.05 µM | < 0.05 µM | < 0.05 µM | 0.05 to 0.1 µM | CN(C[C@H]1CC[C@H](c2nc3cc(C(C)(C)O)c(NC(=O)c4cccc(C(F)(F)F)n4)cc3s2)CC1)[C@H]1CC[C@@H](CCNc2cccc3c2C(=O)N(C2CCC(=O)NC2=O)C3=O)CC1 (stereo partly drawn) [I-46]
17 | < 0.05 µM | < 0.05 µM | < 0.05 µM | < 0.05 µM | CN(C[C@H]1CC[C@H](c2nc3cc(C(C)(C)O)c(NC(=O)c4cccc(C(F)(F)F)n4)cc3s2)CC1)[C@H]1CC[C@H](CCNc2cccc3c2C(=O)N(C2CCC(=O)NC2=O)C3=O)CC1 (stereo partly drawn) [I-27]
18 | 0.1 to 0.5 µM | 0.1 to 0.5 µM | 0.1 to 0.5 µM | < 0.05 µM | CC(C)(O)c1cc2nc([C@H]3CC[C@H](CN4CC(CCNc5cccc6c5C(=O)N(C5CCC(=O)NC5=O)C6=O)C4)CC3)sc2cc1NC(=O)c1cccc(C(F)(F)F)n1 (stereo partly drawn) [I-45]
